A compilation of properties of binary mixtures (doi:10.1016/j.molliq.2016.04.040)

Experiment: xn = mol fraction of the nth substance listed
Conditions: 100 kPa

CC(=O)[O-].CCC[NH3+] + CN1CCCC1=O
speed of sound [m/s]
Conditions	293.15 K	298.15 K	303.15 K	308.15 K	313.15 K	318.15 K	323.15 K	328.15 K	333.15 K
x2 = 0	1504.2	1490.7	–	1461.9	1447.5	–	–	1405.6	–
x2 = 0.05	1506.6	1493.5	–	1464	–	1434.5	1420.4	1406.6	1392.6
x2 = 0.0978	1509.6	1495.7	1481.1	1466.8	1451.7	1436.1	1421.4	1407.6	1393.3
x2 = 0.1978	1515	1501	1485.6	1471.1	–	1439.8	1424.3	1410	1395.1
x2 = 0.3095	1522.4	1506.4	1491.6	1474.8	1459.3	–	–	1413.1	1397.7
x2 = 0.3891	1527.5	1511.4	1495.3	1479	1462.8	1446.7	–	–	1399.2
x2 = 0.4931	1533.3	1517	1500.3	1484.2	1467.1	1451.1	1433.2	1417.5	1401.1
x2 = 0.599	1539.9	1521.9	–	1488.3	1471.5	1453.8	1436.8	1420.2	–
x2 = 0.7001	1545.8	1527.3	–	1492	1474.8	–	1439.8	1422.2	1405.1
x2 = 0.7998	–	1533.1	1515.2	1497.2	–	1461.4	–	–	1407.8
x2 = 0.891	–	1538.6	1519.6	1501.1	1482.7	1463.9	1445.1	1427.5	1409

CCC[NH3+].O=C[O-] + CN1CCCC1=O
speed of sound [m/s]
Conditions	293.15 K	298.15 K	303.15 K	308.15 K	313.15 K	318.15 K	323.15 K	328.15 K	333.15 K
x2 = 0	–	1540.7	–	1519.8	1509.5	1499.2	1489.1	1479	1469
x2 = 0.0494	1556.8	1546	1535.1	–	1513.7	1503.1	–	1482	1471.6
x2 = 0.1047	1557.7	1546.3	1534.9	1523.6	–	1501.3	1490.2	1479.3	1468.4
x2 = 0.1953	1559.5	1547.5	1535.4	1523.3	1511.4	1499.5	1487.7	1475.9	1464.2
x2 = 0.3021	–	1547.4	1534.2	–	1508.1	1495.2	1482.3	1469.4	1456.6
x2 = 0.4205	1563.9	–	–	1520.9	1506.7	1492.6	1478.5	1464.5	1450.5
x2 = 0.5063	1566	1550.9	1535.7	1520.7	1505.7	–	1475.9	1461.1	1446.3
x2 = 0.6001	1565.4	1549.7	1533.7	1517.8	1501.9	1486.2	–	–	1439.1
x2 = 0.7075	1565	1548.1	1531.2	1514.3	1497.6	1480.9	1464.2	1447.5	–
x2 = 0.7986	–	–	1529.2	1511.6	–	1476.8	1459.5	1442.2	–
x2 = 0.9048	–	1545.7	1527.6	–	1491.4	1473.5	1455.7	1438	1420.3
